Experimental data from article PMC7985749 (CNS Drugs, 2021).

How the values were obtained:
[1] = biological target: KDM1A (Homo sapiens, UniProt O60341); test: Chemoprobe-based KDM1A target engagement in PBMCs; type: in vivo
[2] = Adverse events / TEAEs, older adult; type: in vivo, human
[3] = Safety and tolerability, all study stages; type: in vivo, human
[4] = Adverse events / TEAEs, SAD cohort; type: in vivo, human
[5] = Plasma pharmacokinetics, multiple ascending dose; type: in vivo, human; conditions: for Tmax / AUC(0-t) / Cmax / half-life: human, plasma, oral; for AUC(0-t) / Cmax / half-life: mean (CV %); for half-life: t½, 5 days
[6] = Rodent models: therapeutic effect versus hematopoietic impact; type: in vivo; conditions: rodents
[7] = Elderly cohort, active treatment, 5 days, n = 3

Nc1nnc(CN[C@@H]2C[C@H]2c2ccc(OCc3ccccc3)cc2)o1 [vafidemstat]
Maximum KDM1A TE ([1]; SAD cohorts, 4 mg, at 12 h, PBMCs): around 80%
KDM1A TE peak versus plasma exposure ([1]; at Cmax,ss of ~ 30 ng/mL and AUCss of ~ 500 ng·h/mL): ~ 90%
KDM1A TE ([1]; older adult population, evaluable sample from a single individual): 85.6%
Number of TEAEs (% of total TEAEs): Asthenia [2, 7]: 1 (4.8) n (%)
Number of TEAEs (% of total TEAEs): Blunted effect [2, 7]: 1 (4.8) n (%)
Number of TEAEs (% of total TEAEs): Feeling cold [2, 7]: 1 (4.8) n (%)
Number of TEAEs (% of total TEAEs): Gait disturbance [2, 7]: 1 (4.8) n (%)
Number of TEAEs (% of total TEAEs): Headache [2, 7]: 3 (14.3) n (%)
Number of TEAEs (% of total TEAEs): Musculoskeletal stiffness [2, 7]: 1 (4.8) n (%)
Number of TEAEs (% of total TEAEs): Palpitations [2, 7]: 1 (4.8) n (%)
Number of TEAEs (% of total TEAEs): Total [2, 7]: 10 (47.6) n (%)
Number of TEAEs (% of total TEAEs): Vertigo [2, 7]: 1 (4.8) n (%)
Number of treatment-related TEAEs ([2]; MAD stage in older adult volunteers, with vafidemstat): 10
Serious adverse events (SAEs) ([3]; during the study): No SAEs
Changes over time in hematological, biochemical, urinalysis parameters, vital signs, ECG values ([3]; planned SAD or MAD (including older adult) cohorts): No significant changes
Number of AEs reported by subjects receiving vafidemstat ([3]; three study stages (SAD, MAD, older adult), 120 AEs in total): 90
Number of TEAEs possibly or probably related to the study drug ([3]; volunteers treated with vafidemstat, three study stages, 108 TEAEs in total): 79
Number of treatment-related AEs ([4]; SAD stage, subjects receiving vafidemstat): 12
Number of TEAEs (% of total TEAEs): Headache ([4]; SAD, 0.2 mg, n = 6): 1 (7.7) n (%)
Number of TEAEs (% of total TEAEs): Total ([4]; SAD, 0.2 mg, n = 6): 1 (7.7) n (%)
Number of TEAEs (% of total TEAEs): Euphoric mood ([4]; SAD, 0.6 mg, n = 6): 1 (7.7) n (%)
Number of TEAEs (% of total TEAEs): Feeling hot ([4]; SAD, 0.6 mg, n = 6): 1 (7.7) n (%)
Number of TEAEs (% of total TEAEs): Headache ([4]; SAD, 0.6 mg, n = 6): 1 (7.7) n (%)
Number of TEAEs (% of total TEAEs): Total ([4]; SAD, 0.6 mg, n = 6): 3 (23.1) n (%)
Number of TEAEs (% of total TEAEs): Musculoskeletal stiffness ([4]; SAD, 1.5 mg, n = 6): 1 (7.7) n (%)
Number of TEAEs (% of total TEAEs): Paresthesia ([4]; SAD, 1.5 mg, n = 6): 1 (7.7) n (%)
Number of TEAEs (% of total TEAEs): Total ([4]; SAD, 1.5 mg, n = 6): 2 (15.4) n (%)
Number of TEAEs (% of total TEAEs): Abdominal discomfort ([4]; SAD, 2.5 mg, n = 6): 1 (7.7) n (%)
Number of TEAEs (% of total TEAEs): Asthenia ([4]; SAD, 2.5 mg, n = 6): 1 (7.7) n (%)
Number of TEAEs (% of total TEAEs): Dry mouth ([4]; SAD, 2.5 mg, n = 6): 1 (7.7) n (%)
Number of TEAEs (% of total TEAEs): Total ([4]; SAD, 2.5 mg, n = 6): 3 (23.1) n (%)
Number of TEAEs (% of total TEAEs): Blunted affect ([4]; SAD, 4.0 mg, n = 6): 1 (7.7) n (%)
Number of TEAEs (% of total TEAEs): Euphoric mood ([4]; SAD, 4.0 mg, n = 6): 1 (7.7) n (%)
Number of TEAEs (% of total TEAEs): Headache ([4]; SAD, 4.0 mg, n = 6): 1 (7.7) n (%)
Number of TEAEs (% of total TEAEs): Total ([4]; SAD, 4.0 mg, n = 6): 3 (23.1) n (%)
Pharmacokinetic profiles, young versus older adult populations ([5]; 2.5 mg/day): did not differ significantly
Tmax ([5]; both, 0.2 mg/day): 5.1 h
AUC(0-t) ([5]; both, 0.2 mg/day, AUC0–t (D1), MAD 0.2 mg/day, day 1, young): 18.7 ng·h/mL
AUC(0-t) ([5]; both, 0.2 mg/day, AUC0–t,ss (D5), MAD 0.2 mg/day, day 5, young): 37.7 ng·h/mL
Cmax ([5]; both, 0.2 mg/day, Cmax (D1), MAD 0.2 mg/day, day 1, young): 1.28 ng/mL
Cmax ([5]; both, 0.2 mg/day, Cmax,ss (D5), MAD 0.2 mg/day, day 5, young): 2.32 ng/mL
half-life ([5]; both, 0.2 mg/day, MAD 0.2 mg/day, young): 22 h
Tmax ([5]; both, 0.6 mg/day): 2.25 h
AUC(0-t) ([5]; both, 0.6 mg/day, AUC0–t (D1), MAD 0.6 mg/day, day 1, young): 50.6 ng·h/mL
AUC(0-t) ([5]; both, 0.6 mg/day, AUC0–t,ss (D5), MAD 0.6 mg/day, day 5, young): 114 ng·h/mL
Cmax ([5]; both, 0.6 mg/day, Cmax (D1), MAD 0.6 mg/day, day 1, young): 3.69 ng/mL
Cmax ([5]; both, 0.6 mg/day, Cmax,ss (D5), MAD 0.6 mg/day, day 5, young): 7.65 ng/mL
half-life ([5]; both, 0.6 mg/day, MAD 0.6 mg/day, young): 22 h
Tmax ([5]; both, 1 mg/day): 1.83 h
Tmax ([5]; both, 1.5 mg/day): 1.17 h
AUC(0-t) ([5]; both, 1.5 mg/day, AUC0–t (D1), MAD 1.5 mg/day, day 1, young): 138 ng·h/mL
AUC(0-t) ([5]; both, 1.5 mg/day, AUC0–t,ss (D5), MAD 1.5 mg/day, day 5, young): 299 ng·h/mL
Cmax ([5]; both, 1.5 mg/day, Cmax (D1), MAD 1.5 mg/day, day 1, young): 11.3 ng/mL
Cmax ([5]; both, 1.5 mg/day, Cmax,ss (D5), MAD 1.5 mg/day, day 5, young): 23.6 ng/mL
half-life ([5]; both, 1.5 mg/day, MAD 1.5 mg/day, young): 22 h
Tmax ([5]; both, 2.5 mg/day): 2.17 h
AUC(0-t) ([5]; both, 2.5 mg/day, AUC0–t (D1), MAD 2.5 mg/day, day 1, young): 292 ng·h/mL
AUC(0-t) ([5]; both, 2.5 mg/day, AUC0–t,ss (D5), MAD 2.5 mg/day, day 5, young): 634 ng·h/mL
AUC(0-t) ([5]; both, 2.5 mg/day, AUC0–t,ss (D5), MAD older adult 2.5 mg/day, day 5): 442 ng·h/mL
Cmax ([5]; both, 2.5 mg/day, Cmax (D1), MAD 2.5 mg/day, day 1, young): 26.6 ng/mL
Cmax ([5]; both, 2.5 mg/day, Cmax,ss (D5), MAD 2.5 mg/day, day 5, young): 49.9 ng/mL
half-life ([5]; both, 2.5 mg/day, MAD 2.5 mg/day, young): 22 h
half-life ([5]; both, 2.5 mg/day, MAD older adult 2.5 mg/day): 23 h
Tmax ([5]; both, 4 mg/day): 1.33 h
AUC(0-t) ([5]; both, 4 mg/day, AUC0–t (D1), MAD 4.0 mg/day, day 1, young): 564 ng·h/mL
AUC(0-t) ([5]; both, 4 mg/day, AUC0–t,ss (D5), MAD 4.0 mg/day, day 5, young): 994 ng·h/mL
Cmax ([5]; both, 4 mg/day, Cmax (D1), MAD 4.0 mg/day, day 1, young): 56 ng/mL
Cmax ([5]; both, 4 mg/day, Cmax,ss (D5), MAD 4.0 mg/day, day 5, young): 110 ng/mL
half-life ([5]; both, 4 mg/day, MAD 4.0 mg/day, young): 20 h
Tmax ([5]; 2.5 mg/day): 2.33 h
AUC(0-t) ([5]; 2.5 mg/day, AUC0–t (D1), MAD older adult 2.5 mg/day, day 1): 258 ng·h/mL
Cmax ([5]; 2.5 mg/day, Cmax (D1), MAD older adult 2.5 mg/day, day 1): 24.3 ng/mL
Cmax ([5]; 2.5 mg/day, Cmax,ss (D5), MAD older adult 2.5 mg/day, day 5): 41 ng/mL
Window between the therapeutic effect and hematopoietic impact [6]: 30 fold
